Seven compounds from ChEMBL document CHEMBL1201862, “PubChem BioAssay data set” (2004) can be followed below.

SMILES strings stand for the structures.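 1) Cells in 96-well plates. 2) Compound, 48 h, 5 concentrations. 3) Linear interpolation between surrounding doses. 4) Unreached endpoint = highest concentration. The concentration for 50% growth inhibition is given as GI50.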 Active and inactive are the calls of the source. Cut-off read from the data, not from the text of the source: active = GI50 up to about 1.1 µM and inactive = higher. Square brackets hold non-standard residues; d marks the D form. Peptide text beside a SMILES is read from it. 2Nal = N[CH](Cc1ccc2ccccc2c1)C(=O)O

What all share (experiment): inhibition of tumour cell growth, NCI panel, 48 h
In experiment [1] the test system is NCI-H226.
Experiment [2] has as its system NCI-H460.
Experiment [3] has as its system SNB-19.
In experiment [4] the test system is Hs-578T.
Experiment [5] concerns SK-OV-3.
Experiment [6] relates to OVCAR-5.
The test system of experiment [7] is RXF 393.
Experiment [8] has as its system UACC-62.
The subject of experiment [9] is M19-MEL.
Experiment [10] relates to MDA-N.
In experiment [11] the test system is SN12C.
Experiment [12] relates to OVCAR-3.
For experiment [13], the system named is Malme-3M.
Experiment [14] deals with CCRF-CEM.
Experiment [15] relates to HOP-92.
Experiment [16] deals with BT-549.
Experiment [17] has as its system HCC 2998.
The subject of experiment [18] is UACC-257.
Experiment [19] concerns SNB-75.
For experiment [20], the system named is U-251.

As to `NCCNc1ccc(NCCN)c2c1C(=O)c1c(O)ccc(O)c1C2=O`, the GI50 in experiment [1] is 0.0018 µM (active); in experiment [2], < 0.001 µM (active); in experiment [3], 0.00944 µM (active); in experiment [4], 0.148 µM (active); in [5], 0.0266 µM (active); in experiment [6] it was 0.971 µM (active). In addition, the GI50 is 0.0719 µM (active) in experiment [7]; 0.0108 µM (active) in experiment [8]; 0.0197 µM (active) in experiment [9]; 1.13 µM (inactive) in experiment [10]; 0.00483 µM (active) in [11]; 0.486 µM (active) in experiment [12]. The GI50 in experiment [13] is 0.0671 µM (active); in experiment [14], 0.00791 µM (active); in experiment [15], 0.00686 µM (active); in [16], 0.653 µM (active); in [17] it was 0.423 µM (active); in [18], 1.06 µM (active). The GI50 in experiment [19] is 0.0162 µM (active).

With `Cc1cc(NS(=O)(=O)c2ccc(NC(=O)COC(=O)c3cccc4c(=O)c5ccccc5[nH]c34)cc2)no1`, the GI50 in experiment [20], in experiment [1], in experiment [2], in experiment [3], in experiment [5] and in experiment [6] was > 100 µM (inactive) each time. The GI50 in experiment [7], in experiment [8], in experiment [9], in [11], in experiment [12] and in experiment [13] was > 100 µM (inactive) each time. Besides, the GI50 in experiment [14], in [15], in [17], in experiment [18] and in [19] was > 100 µM (inactive) in each case.

Consider `CC(C)=CCc1c(O)cc(O)c2c1OC(c1ccc(O)cc1)C(O)C2=O` (stereo not drawn), for which the GI50 is 25.2 µM (inactive) in experiment [20]; 21.9 µM (inactive) in experiment [1]; 27.6 µM (inactive) in experiment [2]; 37.2 µM (inactive) in experiment [3]; 38.4 µM (inactive) in [5]; 28.2 µM (inactive) in [6]. The GI50 in [7] was 20.3 µM (inactive); in experiment [8] it was 21.4 µM (inactive); in [9] it was 35.7 µM (inactive); in experiment [11] it was 27.7 µM (inactive); in experiment [12], 19.2 µM (inactive); in experiment [13] it was 25.5 µM (inactive). The GI50 in experiment [14] is > 10 µM (inactive); in experiment [15], 18.3 µM (inactive); in experiment [17], 23.1 µM (inactive); in experiment [18], 36.2 µM (inactive); in [19] it was 26.8 µM (inactive).

Regarding `O=C[C@@H](CO)O[C@H](C=O)n1cnc2c(=O)nc[nH]c21`, the GI50 in experiment [20] is 748 µM (inactive); in [1], 583 µM (inactive); in [2] it was 603 µM (inactive); in experiment [3] it was 638 µM (inactive); in experiment [4], 664 µM (inactive); in experiment [5] it was 501 µM (inactive). The GI50 in [6] was 634 µM (inactive); in experiment [7], 239 µM (inactive); in [8] it was 375 µM (inactive); in [9], 346 µM (inactive); in experiment [10], 108 µM (inactive); in [11], 266 µM (inactive). Also, the GI50 is 290 µM (inactive) in experiment [12]; 301 µM (inactive) in experiment [13]; 77.3 µM (inactive) in experiment [14]; 153 µM (inactive) in experiment [15]; 282 µM (inactive) in [16]; 116 µM (inactive) in experiment [17]. For the same compound, the GI50 in [18] was 378 µM (inactive); in [19], 667 µM (inactive).

On to `Cc1nc2ccc(NCCN(C)C)c3c(=O)c4cc(O)ccc4n1c23`, for which the GI50 in [20] is 0.352 µM (active); in experiment [1], 0.109 µM (active); in experiment [2], 0.0291 µM (active); in [3] it was 0.281 µM (active); in [4], 0.508 µM (active); in experiment [5] it was 0.845 µM (active). Further, the GI50 in experiment [6] was 1.42 µM (inactive); in experiment [8] it was 1.25 µM (inactive); in experiment [9] it was 1.54 µM (inactive); in experiment [10], 1.43 µM (inactive); in experiment [11] it was 0.299 µM (active); in [12], 1.27 µM (inactive). Moreover, the GI50 in [13] was 1.19 µM (inactive); in experiment [14], 0.0962 µM (active); in [15], 1.12 µM (active); in [16] it was 3.45 µM (inactive); in experiment [17], 0.252 µM (active); in experiment [18] it was 3.56 µM (inactive). Also, the GI50 in [19] was 0.418 µM (active).

As to `COc1cccc(N[C@@H]2c3cc4c(cc3C(c3cc(OC)c(O)c(OC)c3)[C@H]3C(=O)OCC32)OCO4)c1` (stereo partly drawn), the GI50 in experiment [20] is 0.411 µM (active); in [1], 0.249 µM (active); in [2] it was < 0.01 µM (active); in [3], 0.328 µM (active); in experiment [5] it was 1.32 µM (inactive); in experiment [6], 4.46 µM (inactive). Moreover, the GI50 was 1.07 µM (active) in experiment [7]; 0.24 µM (active) in [8]; 0.624 µM (active) in experiment [9]; 0.681 µM (active) in experiment [11]; 8.53 µM (inactive) in experiment [12]; 1.79 µM (inactive) in experiment [13]. In addition, the GI50 in [14] is 0.0546 µM (active); in experiment [15], 0.346 µM (active); in experiment [17], 1.36 µM (inactive); in [18] it was 0.44 µM (active); in experiment [19] it was 0.52 µM (active).

Regarding `CC(C)C(NC(=O)C(CCCCN)NC(=O)C(Cc1c[nH]c2ccccc12)NC(=O)C(Cc1ccc(O)cc1)NC(=O)C(CS)NC(=O)C(N)Cc1ccc2ccccc2c1)C(=O)NC(CS)C(=O)NC(C(N)=O)C(C)O` (stereo not drawn) (H-[2Nal]CYWKVCT-NH2; configuration not given here), the GI50 in [20] was > 12.5 µM (inactive); in [1], > 12.5 µM (inactive); in experiment [2], > 12.5 µM (inactive); in experiment [3] it was > 100 µM (inactive); in [4], > 12.5 µM (inactive); in experiment [5], > 12.5 µM (inactive). Besides, the GI50 in [6] was > 12.5 µM (inactive); in experiment [7] it was > 12.5 µM (inactive); in experiment [8], > 12.5 µM (inactive); in experiment [9] it was > 100 µM (inactive); in experiment [10], > 12.5 µM (inactive); in experiment [11], > 12.5 µM (inactive). For the same compound, the GI50 in experiment [12] was > 12.5 µM (inactive); in experiment [13], > 12.5 µM (inactive); in experiment [14], > 12.5 µM (inactive); in experiment [15], < 0.01 µM (active); in [17], > 12.5 µM (inactive); in [18] it was > 12.5 µM (inactive). Moreover, the GI50 in experiment [19] is > 100 µM (inactive).
